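Tested at 5 concentrations; 48 h exposure; 96-well plates; endpoints linearly interpolated, else capped at highest concentration. The concentration for full growth arrest is given as TGI.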
How the values were obtained:
Assay in all cases: NCI tumour cell line growth inhibition, 48 h
[1] = test system: DU-145 prostate
[2] = test system: NCI-H23 lung
[3] = test system: CAKI-1 renal
[4] = test system: SK-MEL-2 melanoma
[5] = test system: HCC-2998 colon
[6] = test system: T-47D breast
[7] = test system: M14 melanoma
[8] = test system: NCI-H522 lung
[9] = test system: SNB-75 CNS
[10] = test system: SF-268 CNS
[11] = test system: SK-MEL-28 melanoma
[12] = test system: HL-60(TB) leukemia
[13] = test system: 786-0 renal
[14] = test system: SK-OV-3 ovarian
[15] = test system: MDA-MB-231 breast
[16] = test system: SK-MEL-5 melanoma
[17] = test system: U251 CNS
[18] = test system: TK-10 renal
[19] = test system: NCI-H226 lung
[20] = test system: LOX IMVI melanoma
[21] = test system: A498 renal
[22] = test system: SF-539 CNS
[23] = test system: A549 NSCLC
[24] = test system: ACHN renal
[25] = test system: SNB-19 CNS
[26] = test system: OVCAR-4 ovarian
[27] = test system: EKVX NSCLC
[28] = test system: OVCAR-5 ovarian
[29] = test system: HCT-15 colon
[30] = test system: MALME-3M melanoma
[31] = test system: NCI/ADR-RES ovarian
[32] = test system: HOP-62 NSCLC
[33] = test system: COLO 205 colon
[34] = test system: MCF7 breast
[35] = test system: K-562 leukemia
[36] = test system: UACC-62 melanoma
[37] = test system: SR leukemia
[38] = test system: SF-295 CNS
[39] = test system: SW-620 colon
[40] = test system: OVCAR-3 ovarian
[41] = test system: RPMI-8226 leukemia
[42] = test system: MDA-MB-435
[43] = test system: HT29 colon
[44] = test system: NCI-H460 lung
[45] = test system: MOLT-4 leukemia
[46] = test system: HOP-92 NSCLC
[47] = test system: RXF 393 renal
[48] = test system: UO-31 renal
[49] = test system: KM12 colon
[50] = test system: PC-3 prostate
[51] = test system: HCT-116 colon
[52] = test system: BT-549 breast
[53] = test system: UACC-257 melanoma
[54] = test system: OVCAR-8 ovarian
[55] = test system: SN12C renal
[56] = test system: CCRF-CEM leukemia
[57] = test system: IGROV1 ovarian

COc1ccc(C23OCC(Cc4cc(OC)c(OC)cc42)C3COC(C)=O)cc1OC (stereo not given) was tested, and the TGI [1] was greater than 100 µM, the TGI [2] was greater than 100 µM and the TGI [3] was greater than 100 µM. The TGI [4] was greater than 100 µM, the TGI [5] was greater than 100 µM and the TGI [6] was greater than 100 µM. The TGI [7] was greater than 100 µM, the TGI [8] was greater than 100 µM and the TGI [9] was greater than 100 µM. The TGI [10] was greater than 100 µM, the TGI [11] was greater than 100 µM and the TGI [12] was greater than 100 µM. For the same molecule, the TGI [13] was greater than 100 µM, the TGI [14] was greater than 100 µM and the TGI [15] was greater than 100 µM. It also gave a TGI [16] greater than 100 µM, a TGI [17] greater than 100 µM and a TGI [18] greater than 100 µM. The TGI [19] was greater than 100 µM, the TGI [20] was greater than 100 µM and the TGI [21] was greater than 100 µM. The TGI [22] was greater than 100 µM, the TGI [23] was greater than 100 µM and the TGI [24] was greater than 100 µM. For the same molecule, the TGI [25] was greater than 100 µM, the TGI [26] was greater than 100 µM and the TGI [27] was greater than 100 µM. It also gave a TGI [28] greater than 100 µM, a TGI [29] greater than 100 µM and a TGI [30] greater than 100 µM. It also gave a TGI [31] greater than 100 µM, a TGI [32] greater than 100 µM and a TGI [33] greater than 100 µM. For the same molecule, the TGI [34] was greater than 100 µM, the TGI [35] was greater than 100 µM and the TGI [36] was greater than 100 µM. For the same molecule, the TGI [37] was greater than 100 µM, the TGI [38] was greater than 100 µM and the TGI [39] was greater than 100 µM. It also gave a TGI [40] greater than 100 µM, a TGI [41] greater than 100 µM and a TGI [42] greater than 100 µM. The TGI [43] was greater than 100 µM, the TGI [44] was greater than 100 µM and the TGI [45] was greater than 100 µM. It also gave a TGI [46] greater than 100 µM, a TGI [47] greater than 100 µM and a TGI [48] greater than 100 µM. For the same molecule, the TGI [49] was greater than 100 µM, the TGI [50] was greater than 100 µM and the TGI [51] was greater than 100 µM. For the same molecule, the TGI [52] was greater than 100 µM.

Molecule N#Cc1c(-c2ccc([N+](=O)[O-])cc2)cc(-c2ccc(Nc3ccnc4cc(C(F)(F)F)ccc34)cc2)[nH]c1=O has a TGI [1] greater than 100 µM, a TGI [2] greater than 100 µM and a TGI [53] greater than 100 µM. For the same molecule, the TGI [3] was greater than 100 µM, the TGI [4] was greater than 100 µM and the TGI [5] was greater than 100 µM. The TGI [6] was greater than 100 µM, the TGI [7] was greater than 100 µM and the TGI [54] was greater than 100 µM. The TGI [8] was greater than 100 µM, the TGI [9] was greater than 100 µM and the TGI [10] was greater than 100 µM. For the same molecule, the TGI [11] was greater than 100 µM, the TGI [13] was greater than 100 µM and the TGI [14] was greater than 100 µM. For the same molecule, the TGI [15] was 44.7 µM, the TGI [16] was greater than 100 µM and the TGI [17] was 21.9 µM. It also gave a TGI [18] greater than 100 µM, a TGI [19] greater than 100 µM and a TGI [20] greater than 100 µM. The TGI [21] was greater than 100 µM, the TGI [22] was greater than 100 µM and the TGI [23] was greater than 100 µM. For the same molecule, the TGI [24] was greater than 100 µM, the TGI [25] was 82.7 µM and the TGI [26] was greater than 100 µM. It also gave a TGI [27] greater than 100 µM, a TGI [28] of 40.1 µM and a TGI [29] greater than 100 µM. For the same molecule, the TGI [30] was greater than 100 µM, the TGI [31] was greater than 100 µM and the TGI [32] was greater than 100 µM. It also gave a TGI [33] of 29.1 µM, a TGI [34] greater than 100 µM and a TGI [35] greater than 100 µM. It also gave a TGI [36] greater than 100 µM, a TGI [37] greater than 100 µM and a TGI [55] greater than 100 µM. For the same molecule, the TGI [56] was greater than 100 µM, the TGI [38] was greater than 100 µM and the TGI [39] was greater than 100 µM. It also gave a TGI [41] greater than 100 µM, a TGI [42] greater than 100 µM and a TGI [43] greater than 100 µM. The TGI [44] was greater than 100 µM, the TGI [45] was greater than 100 µM and the TGI [57] was greater than 100 µM. It also gave a TGI [47] greater than 100 µM, a TGI [48] greater than 100 µM and a TGI [50] greater than 100 µM. For the same molecule, the TGI [51] was 66.1 µM and the TGI [52] was greater than 100 µM.

— PubChem BioAssay (NCI)
